# Data reported in patent US20210317140A1, “Heterocyclic Compounds and Methods of Use” (MEDIVATION TECHNOLOGIES, INC, priority 2013, published 2021).
# Key:
# BTK = target: T1, BTK (Homo sapiens, UniProt Q06187); experiment: BTK kinase assay (HotSpot, 33P ATP); format: biochemical; details: for BTK @ 0.1 μM (% Inh): 0.1 μM compound; for BTK @ 0.1 μM (% Inh) / BTK @ 1 μM (% Inh): 10 μM ATP; for BTK @ 1 μM (% Inh): 1 μM compound; for IC50: 10 dose IC50, 10 μM ATP
# T1 construct: purchased Reaction Biology Corporation
# Procedure: (§1) Compounds of the invention were profiled in a 10 dose IC50 panel against BTK and PI3Kδ, both provided by Reaction Biology Corporation.
# BTK assay: In vitro profiling protein kinases was performed using the “HotSpot” assay platform. Briefly, specific kinase/substrate pairs along with required cofactors were prepared in reaction buffer. Compounds were prepared as 10 mM stock solutions in DMSO. Compounds were delivered into the reaction, followed 15-20 minutes later by addition of a mixture of ATP (Sigma, St. Louis Mo.) and ^33P ATP (Perkin Elmer, Waltham Mass.) to a final concentration of 10 μM. […] IC50 values and curve fits were obtained using Prism (GraphPad Software). Buffer Conditions: 20 mM Hepes (pH 7.5), 10 mM MgCl2, 1 mM EGTA, 0.02% Brij35, 0.02 mg/mL BSA, 0.1 mM Na3VO4, 2 mM DTT, 1% DMSO.
# PI3Kδ = target: T2, PI3Kδ (Homo sapiens, UniProt O00329); experiment: PI3Kδ kinase assay (HTRF, PIP3 detection); format: biochemical; details: for PI3Kδ @ 0.1 μM (% Inh): 0.1 μM compound; for PI3Kδ @ 0.1 μM (% Inh) / PI3Kδ @ 1 μM (% Inh): 10 μM ATP; for PI3Kδ @ 1 μM (% Inh): 1 μM compound; for IC50: 10 dose IC50, 10 μM ATP
# T2 construct: purchased Reaction Biology Corporation
# Text: as §1
# PI3Kδ assay: The PIP3 product is detected by displacement of biotin-PIP3 from an energy transfer complex consisting of Europium labeled anti-GST monoclonal antibody, a GST-tagged pleckstrin homology (PH) domain, biotinylated PIP3 and Streptavidin-Allophycocyanin (APC). […] The PIP3 product formed by PI 3-Kinase(h) activity displaces biotin-PIP3 from the complex resulting in a loss of energy transfer and thus a decrease in signal. This is a 3-step reaction: First, the kinase reaction with PIP2 substrate is carried out in the presence of ATP (10 μM), and the reaction is quenched with stop Solution, and then finally detect by adding Detection Mixture followed by incubation (10 min). Reaction procedure: 1) Prepare substrate in freshly prepared Reaction Buffer. 2) Deliver kinase into the substrate solution and gently mix. 3) Deliver compounds in 100% DMSO (1 μM) into the kinase reaction mixture by Acoustic technology (Echo550; nanoliter range), incubate for 10 min at RT. 4) Deliver ATP into the reaction mixture to initiate the reaction. 5) Incubate for 30 min at 30° C. 6) Quench the reaction with Stop Solution. 7) Add Detection Mixture, and incubate for overnight. […] The emission ratio is converted into μM PIP3 production based on PIP3 standard curves. The nonlinear regression to obtain the standard curve and IC50 values are performed using Graphpad Prism software. Assay Buffer: HEPES 50 mM (pH7.0), NaN3 0.02%, BSA 0.01%, Orthovanadate 0.1 mM, 1% DMSO. Detection buffer: HEPES 10 mM (pH7.0), BSA 0.02%, KF 0.16 M, EDTA 4 mM. Substrate: 10 μM PIP2 substrate (PI(4,5)P2).
# T1 sequence (Q06187 whole entry): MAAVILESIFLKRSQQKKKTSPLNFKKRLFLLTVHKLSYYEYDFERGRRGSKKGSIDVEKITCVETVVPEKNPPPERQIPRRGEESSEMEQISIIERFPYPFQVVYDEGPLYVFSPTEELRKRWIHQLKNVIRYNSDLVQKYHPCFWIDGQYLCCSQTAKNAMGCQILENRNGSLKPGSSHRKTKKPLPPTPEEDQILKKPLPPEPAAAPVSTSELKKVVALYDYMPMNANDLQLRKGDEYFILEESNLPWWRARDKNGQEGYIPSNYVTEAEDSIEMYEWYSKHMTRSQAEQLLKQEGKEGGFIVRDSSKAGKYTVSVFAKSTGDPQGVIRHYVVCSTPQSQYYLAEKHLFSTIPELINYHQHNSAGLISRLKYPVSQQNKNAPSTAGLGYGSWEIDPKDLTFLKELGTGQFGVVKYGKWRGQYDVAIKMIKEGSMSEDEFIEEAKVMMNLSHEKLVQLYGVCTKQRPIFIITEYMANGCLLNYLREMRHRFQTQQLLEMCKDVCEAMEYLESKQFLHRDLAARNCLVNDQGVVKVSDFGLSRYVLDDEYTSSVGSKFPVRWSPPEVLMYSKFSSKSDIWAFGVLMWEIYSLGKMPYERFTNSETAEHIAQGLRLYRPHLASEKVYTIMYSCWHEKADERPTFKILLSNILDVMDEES
# T2 sequence (O00329 whole entry): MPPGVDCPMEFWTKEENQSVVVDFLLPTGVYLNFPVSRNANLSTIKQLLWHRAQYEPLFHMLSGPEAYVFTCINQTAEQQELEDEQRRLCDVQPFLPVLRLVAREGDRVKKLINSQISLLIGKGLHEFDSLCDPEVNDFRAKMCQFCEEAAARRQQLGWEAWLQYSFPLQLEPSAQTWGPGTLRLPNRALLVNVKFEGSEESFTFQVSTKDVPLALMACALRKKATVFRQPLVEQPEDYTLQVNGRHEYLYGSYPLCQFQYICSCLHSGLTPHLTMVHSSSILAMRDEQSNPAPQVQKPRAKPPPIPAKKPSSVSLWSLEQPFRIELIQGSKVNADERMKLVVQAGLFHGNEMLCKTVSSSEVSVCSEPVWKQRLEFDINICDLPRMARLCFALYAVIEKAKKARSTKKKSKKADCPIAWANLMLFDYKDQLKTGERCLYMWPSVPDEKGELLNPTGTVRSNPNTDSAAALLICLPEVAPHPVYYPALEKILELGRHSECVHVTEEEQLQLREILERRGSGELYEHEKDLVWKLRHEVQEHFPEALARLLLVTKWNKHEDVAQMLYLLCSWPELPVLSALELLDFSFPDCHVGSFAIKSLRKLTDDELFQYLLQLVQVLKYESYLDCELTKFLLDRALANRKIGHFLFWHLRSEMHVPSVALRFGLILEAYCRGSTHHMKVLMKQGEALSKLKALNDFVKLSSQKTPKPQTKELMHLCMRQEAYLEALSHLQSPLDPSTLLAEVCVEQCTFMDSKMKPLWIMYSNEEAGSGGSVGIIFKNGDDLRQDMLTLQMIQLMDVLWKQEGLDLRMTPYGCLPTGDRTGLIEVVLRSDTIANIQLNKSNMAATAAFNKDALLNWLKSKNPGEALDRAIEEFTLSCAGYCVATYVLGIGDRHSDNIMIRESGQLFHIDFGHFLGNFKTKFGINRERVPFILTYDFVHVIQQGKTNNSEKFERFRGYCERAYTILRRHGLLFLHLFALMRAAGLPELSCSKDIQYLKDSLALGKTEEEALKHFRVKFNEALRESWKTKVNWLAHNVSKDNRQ
# T2 sequence (P27986 whole entry partner): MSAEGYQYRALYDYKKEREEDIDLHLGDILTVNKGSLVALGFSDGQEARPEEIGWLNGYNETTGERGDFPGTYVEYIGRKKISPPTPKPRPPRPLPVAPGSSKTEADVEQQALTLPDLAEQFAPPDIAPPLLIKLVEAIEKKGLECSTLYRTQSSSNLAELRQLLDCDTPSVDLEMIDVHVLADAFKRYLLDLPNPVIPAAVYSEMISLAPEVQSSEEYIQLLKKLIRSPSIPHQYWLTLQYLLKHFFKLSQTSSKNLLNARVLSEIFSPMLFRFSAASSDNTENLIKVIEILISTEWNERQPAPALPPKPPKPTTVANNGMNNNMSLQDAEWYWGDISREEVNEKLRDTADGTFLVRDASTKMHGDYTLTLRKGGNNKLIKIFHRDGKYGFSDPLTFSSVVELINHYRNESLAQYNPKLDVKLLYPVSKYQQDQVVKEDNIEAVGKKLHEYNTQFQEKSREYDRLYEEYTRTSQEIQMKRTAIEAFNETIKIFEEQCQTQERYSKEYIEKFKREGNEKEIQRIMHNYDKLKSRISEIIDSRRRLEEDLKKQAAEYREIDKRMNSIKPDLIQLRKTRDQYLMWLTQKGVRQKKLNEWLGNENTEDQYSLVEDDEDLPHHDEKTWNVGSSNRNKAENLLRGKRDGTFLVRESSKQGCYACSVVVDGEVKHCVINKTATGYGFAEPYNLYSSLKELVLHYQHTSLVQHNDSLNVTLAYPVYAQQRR
Structure (SMILES),BTK @ 0.1 μM (% Inh) (BTK),BTK @ 1 μM (% Inh) (BTK),IC50 (BTK) [µM],PI3Kδ @ 0.1 μM (% Inh) (PI3Kδ),PI3Kδ @ 1 μM (% Inh) (PI3Kδ),IC50 (PI3Kδ) [µM]
"Nc1ncnc2c1c(-c1ccccc1CO)nn2C1Cc2ccccc2C1 [Compound No. 53, {2-[4-amino-1-(2,3-dihydro-1H-inden-2-yl)-1H-pyrazolo[3,4-d]pyrimidin-3-yl]phenyl}methanol]",30.42,76.1,0.575,30.15,81.32,0.645
"Nc1ncnc2c1c(-c1cccc(CO)c1)nn2C1Cc2ccccc2C1 [Compound No. 54, {3-[4-amino-1-(2,3-dihydro-1H-inden-2-yl)-1H-pyrazolo[3,4-d]pyrimidin-3-yl]phenyl}methanol]",27.64,72.19,0.84,22.41,72.03,0.924
"Nc1ncnc2c1c(-c1ccc(CO)cc1)nn2C1Cc2ccccc2C1 [Compound No. 55, {4-[4-amino-1-(2,3-dihydro-1H-inden-2-yl)-1H-pyrazolo[3,4-d]pyrimidin-3-yl]phenyl}methanol]",14.00,50.29,2.09,15.60,48.96,10.4
"NC(=O)/C=C/c1nn(C2Cc3ccccc3C2)c2ncnc(N)c12 [Compound No. 58, (2E)-3-[4-amino-1-(2,3-dihydro-1H-inden-2-yl)-1H-pyrazolo[3,4-d]pyrimidin-3-yl]prop-2-enamide]",18.0,43.79,–,33.15,44.88,–
"CC(=O)Nc1cccc(-c2nn(C3Cc4ccccc4C3)c3ncnc(N)c23)c1 [Compound No. 59, N-{3-[4-amino-1-(2,3-dihydro-1H-inden-2-yl)-1H-pyrazolo[3,4-d]pyrimidin-3-yl]phenyl}acetamide]",14.08,19.76,–,17.93,5.79,–
"CC(=O)Nc1cc(F)cc(-c2nn(C3Cc4ccccc4C3)c3ncnc(N)c23)c1 [Compound No. 60, N-{3-[4-amino-1-(2,3-dihydro-1H-inden-2-yl)-1H-pyrazolo[3,4-d]pyrimidin-3-yl]-5-fluorophenyl}acetamide]",16.91,30.02,–,10.65,31.35,–
"COc1cncc(-c2nn(C3Cc4ccccc4C3)c3ncnc(N)c23)c1 [Compound No. 61, 1-(2,3-dihydro-1H-inden-2-yl)-3-(5-methoxypyridin-3-yl)-1H-pyrazolo[3,4-d]pyrimidin-4-amine]",16.63,45.41,–,32.36,71.04,–
"COc1cc(F)cc(-c2cn(C3Cc4ccccc4C3)c3ncnc(N)c23)c1 [Compound No. 62, 7-(2,3-dihydro-1H-inden-2-yl)-5-(3-fluoro-5-methoxyphenyl)-7H-pyrrolo[2,3-d]pyrimidin-4-amine]",57.13,91.61,–,17.28,43.03,–
"COc1cc(-c2nn(C3Cc4ccccc4C3)c3ncnc(N)c23)ccc1N [Compound No. 66, 3-(4-amino-3-methoxyphenyl)-1-(2,3-dihydro-1H-inden-2-yl)-1H-pyrazolo[3,4-d]pyrimidin-4-amine]",69.93,95.07,0.0253,17.08,53.69,0.461
"COc1cc(-c2nn(C3Cc4ccccc4C3)c3ncnc(N)c23)ccc1C(F)(F)F [Compound No. 69, 1-(2,3-dihydro-1H-inden-2-yl)-3-[3-methoxy-4-(trifluoromethyl)phenyl]-1H-pyrazolo[3,4-d]pyrimidin-4-amine]",19.61,61.7,0.791,4.96,60.21,0.328
"Nc1ncnc2c1c(-c1ccnc3[nH]ccc13)nn2C1Cc2ccccc2C1 [Compound No. 70, 1-(2,3-dihydro-1H-inden-2-yl)-3-{1H-pyrrolo[2,3-b]pyridin-4-yl}-1H-pyrazolo[3,4-d]pyrimidin-4-amine]",12.11,36.56,–,9.29,56.41,–
"CCOc1ccc(-c2nn(C3Cc4ccccc4C3)c3ncnc(N)c23)cc1OC [Compound No. 71, 1-(2,3-dihydro-1H-inden-2-yl)-3-(4-ethoxy-3-methoxyphenyl)-1H-pyrazolo[3,4-d]pyrimidin-4-amine]",24.51,71.58,0.392,47.56,89.24,0.0639
"Nc1ncnc2c1c(-c1cc(O)cc(OC(F)(F)F)c1)nn2C1Cc2ccccc2C1 [Compound No. 72, 3-[4-amino-1-(2,3-dihydro-1H-inden-2-yl)-1H-pyrazolo[3,4-d]pyrimidin-3-yl]-5-(trifluoromethoxy)phenol]",6.81,7.63,–,55.46,85.89,–
"COc1ccc(-c2nn(C3Cc4ccccc4C3)c3ncnc(N)c23)cc1N [Compound No. 73, 3-(3-amino-4-methoxyphenyl)-1-(2,3-dihydro-1H-inden-2-yl)-1H-pyrazolo[3,4-d]pyrimidin-4-amine]",72.03,95.31,0.0305,14.37,52.39,0.325
"Nc1ncnc2c1c(-c1ccc3c(c1)OCCCO3)nn2C1Cc2ccccc2C1 [Compound No. 74, 1-(2,3-dihydro-1H-inden-2-yl)-3-(3,4-dihydro-2H-1,5-benzodioxepin-7-yl)-1H-pyrazolo[3,4-d]pyrimidin-4-amine]",10.82,33.05,–,10.99,65.15,–
"Nc1ncnc2c1c(-c1ccc3c(c1)OC(F)(F)O3)nn2C1Cc2ccccc2C1 [Compound No. 75, 3-(2,2-difluoro-2H-1,3-benzodioxol-5-yl)-1-(2,3-dihydro-1H-inden-2-yl)-1H-pyrazolo[3,4-d]pyrimidin-4-amine]",10.92,29.0,–,−0.46,15.57,–
"CCOc1cc(-c2nn(C3Cc4ccccc4C3)c3ncnc(N)c23)ccc1OC(F)(F)F [Compound No. 76, 1-(2,3-dihydro-1H-inden-2-yl)-3-[3-ethoxy-4-(trifluoromethoxy)phenyl]-1H-pyrazolo[3,4-d]pyrimidin-4-amine]",5.47,6.5,–,−13.69,13.55,–
